Test results: article PMC10299677, “Fluorinated Benzofuran and Dihydrobenzofuran as Anti-Inflammatory and Potential Anticancer Agents” (International Journal of Molecular Sciences, 2023)

How the values were obtained:
[1] = system: PARP-1; assay: Cleaved PARP-1 protein in HCT116 (Western blot); type: cell-based, human; settings: 10, 25 and 50 µM, 72 h
Method: Macrophages were incubated with the compounds for 30 min prior to the addition of 10 ng/mL LPS for 24 h. Protein levels for COX-2 and NOS2 were detected in LPS-stimulated macrophages. As previously described, 10 µg of total protein was assessed. The primary antibodies were developed and characterized as previously described: for COX-2, mouse monoclonal antibody anti-COX-2 (clone COX-214, 1/5000); for NOS2, rabbit polyclonal antibody anti-NOS2 (dilution1/2000 [33]). Antibodies anti-phospho-NF-κB (3033S), phospho-IκBα (9246S), and total IκBα (4814S) were from Cell Signaling Technologies (Danvers, MA, USA). Total NF-κB C-20 (sc-372) was from Santa Cruz Biotechnologies (Dallas, TX, USA), and mouse β-actin (dilution 1/10,000) (Sigma-Aldrich, A5441). Clarity™ western ECL substrate (Bio-Rad Laboratories 10-5061) was used according to the manufacturer’s instructions to reveal positive bands visualized using Bio-Rad ChemiDoc. For Bcl-2 and cleaved PARP-1, HCT116 cells were plated in 6-well plates (200,000 cells per well) for 24 h, and treated with compounds 1 and 2 at 10, 25, and 50 µM for 72 h. Supernatants and cells were collected and lysed using RIPA lysis buffer containing inhibitors of protease. […]

[2] = system: CCL2 mRNA; assay: LPS-dependent CCL2 mRNA in THP-1-derived macrophages (RT-PCR); type: cell-based, human; settings: 50 µM, 10 ng/ml LPS 6 h
Method: F i g u re S3: Eff ect of benzofuran compounds on the lev els of LP S -dependent mRNA of CCL2 and IL-6 in THP-1 –deriv ed macrophages. Human-monoc yti c cell l ine-THP-1 wer e treat ed with PMA (25 nM for 48 hours) th en in cub ated with 50 μM compounds for 30 minutes b efo re the addit ion of 10 ng/ml LP S fo r 6 hours. Gene ex pression of IL6 and CCL2 were measur ed by RT-PCR and the v alu es wer e nor mal ized to GAPDH. Results represent means ± SEM by one way ANOVA followed by Dunnett test.

[3] = system: COX-2 protein expression; assay: COX-2 protein expression in LPS-treated macrophages (Western blot); type: cell-based, C57BL/6J mice; settings: 10 µM for compounds 1, 7, 9, 50 µM for others, LPS 24 h
Method: Figure 4 Effects of the fluorinated benzofuran and dihydrobenzofuran on COX-2 and NOS2 protein expressions. COX-2 and NOS2 protein expressions were assessed in macrophages incubated with only 10 µM for compounds 1, 7, and 9, and 50 µM for the other compounds, for 30 min prior to the addition of 10 ng/mL LPS for 24 h. β-actin was used as a loading control, and densitometric analysis was performed using ImageJ software (NIH, MA). Data are expressed as fold of LPS-treated macrophages and represented as mean ± SEM of 4 different experiments; * p < 0.05 versus LPS (one-way ANOVA followed by Dunnett’s test).
Macrophages were incubated with the compounds for 30 min prior to the addition of 10 ng/mL LPS for 24 h. Protein levels for COX-2 and NOS2 were detected in LPS-stimulated macrophages. As previously described, 10 µg of total protein was assessed. The primary antibodies were developed and characterized as previously described: for COX-2, mouse monoclonal antibody anti-COX-2 (clone COX-214, 1/5000); for NOS2, rabbit polyclonal antibody anti-NOS2 (dilution1/2000 [33]). Antibodies anti-phospho-NF-κB (3033S), phospho-IκBα (9246S), and total IκBα (4814S) were from Cell Signaling Technologies (Danvers, MA, USA). Total NF-κB C-20 (sc-372) was from Santa Cruz Biotechnologies (Dallas, TX, USA), and mouse β-actin (dilution 1/10,000) (Sigma-Aldrich, A5441). Clarity™ western ECL substrate (Bio-Rad Laboratories 10-5061) was used according to the manufacturer’s instructions to reveal positive bands visualized using Bio-Rad ChemiDoc. For Bcl-2 and cleaved PARP-1, HCT116 cells were plated in 6-well plates (200,000 cells per well) for 24 h, and treated with compounds 1 and 2 at 10, 25, and 50 µM for 72 h. Supernatants and cells were collected and lysed using RIPA lysis buffer containing inhibitors of protease. Western blot of Bcl-2 and cleaved PARP-1 was performed using 25 µg of total protein with a rabbit polyclonal antibody anti-Bcl-2 (1/500) (Santa Cruz Biotechnology, sc-492), rabbit polyclonal antibody anti-PARP-1 (1/1000) (Santa Cruz Biotechnology, sc-7150), and mouse anti-β-actin (dilution 1/10,000) (Sigma-Aldrich, A5441).
Densitometric analyses were performed using ImageJ software (NIH, MA, USA). The ratio of the different analyzed bands to β-actin was determined and data are represented as fold change compared to the LPS-treated cells. Percentage of viable cells for proliferation assay was determined as percentage to control (non-treated cells). For TUNEL assay, apoptotic cells were quantified, and results were expressed as percentage to positive cells (cleaved DNA) compared to control (non-treated cells). Statistical analysis was performed using one-way ANOVA, followed by Dunnett’s multiple comparisons test using GraphPad Prism software. Differences were considered significant when p < 0.05.

[4] = system: zymosan-induced air pouch inflammation; assay: Subcutaneous zymosan-induced air pouch model of inflammation; type: in vivo, C57BL/6J mice; settings: 50 nmol per pouch co-injected with 1% zymosan, 24 h
Method: Figure 5 Effect of fluorinated benzofuran and dihydrobenzofuran on inflammation in the zymosan-treated sterile air pouch model in mice. (A) A timeline for the zymosan-induced inflammation experiments of the air pouch model in C57/BL6 mice. The pouch was formed on day 1 and refilled on day 4 with sterile air. Mice were injected at day 6 with 1% zymosan (w/v in saline), or 0.5 mL of saline for control mice. An amount of 50 nmol of compounds 2, 3, 5, and 6, or vehicle, were co-injected into the air pouch. At 24 h post-treatment, exudates were collected. (B) Recruited cells in the pouch and PGE2 production. (C) Gene expressions of inflammatory enzymes Ptgs2 and Nos2, proinflammatory cytokines Il1α and Il1β, and chemokines Ccl3 and Ccl4. Data correspond to the mean ± SEM (n = 6–8 mice per group); * p < 0.05 compared to the zymosan-treated cells (one-way ANOVA followed by Dunnett’s test).
C57BL/6J female mice (8-week-old, 20–25 g) were kept at 5 per cage on a 12 h light–dark cycle with cotton cocoon as enrichment in temperature- and humidity-controlled rooms. Mice were provided with food and water ad libitum, and food intake and body weight were monitored throughout the study period. Approval for use of animals was obtained from the IACUC (16-11-393). Dorsal air pouches were created in mice as previously described. Six days after the initial injection of sterile air, 0.5 mL of saline containing 100 µM of benzofuran compounds 2, 3, 5, or 6 (50 nmol per pouch) or 0.2% DMSO as vehicle was co-injected in the pouch with 0.5 mL of 0.9% saline (for the control group) or 0.5 mL of 1% zymosan (w/v, for zymosan and zymosan + compound) (Sigma-Aldrich, 400140). At 24 h after treatment, the animals were sacrificed by CO2 inhalation and the air pouch washed, the exudates collected, and the cell number determined. As previously reported, the main subtype of leukocytes present in the air pouch were neutrophils (75%) and monocytes–macrophages (12–15%), as determined by selective flow cytometry. The concentrations of PGE2, CCL2, and IL-6 and the gene expression were assessed as described previously.
For gene expression, RT-PCR was performed as described previously. Briefly, cell pellets obtained by centrifugation of air pouch exudates at 300× g for 5 min at 4 °C were suspended in TriPure (Sigma Aldrich 11667165001). An amount of 2 μg of total RNA was reverse-transcribed using iScript cDNA synthesis kit (Bio-Rad Laboratories, 1708891). RT-PCR was carried out on CFX384 cycler using iTaq Universal SYBR Green Supermix kit (Bio-Rad Laboratories, 1725121) and the primers obtained from TIB Molbiol (Berlin, Germany). Oligonucleotide sequences were according to the references, except for Ptgs2 and Nos2, which were as follows: Ptgs2 (F): […]; Ptgs2 (R): […]; Nos2 (F): […]; Nos2 (R): […]. Gene expression was calculated using ^ΔΔCT method relative to the housekeeping gene 18S.

## COC(=O)/C=C1/Oc2ccc(Br)cc2C1(F)F [Compound 1]
[1]
  protein level of cleaved PARP-1: increase
[2]
  effect on CCL2 mRNA levels: decreased significantly
[3]
  effect on LPS-induced COX-2 protein expression: loss of this inhibitory effect

## O=C(O)/C=C1/Oc2ccc(Br)cc2C1(F)F [Compound 2]
[1]
  protein level of cleaved PARP-1: increase
[2]
  effect on CCL2 mRNA levels: decreased significantly
[4]
  IL-6 production in air pouch, ELISA: inhibited
  PGE2 levels in air pouch exudates: inhibited
  number of cells of the air pouch exudates: significantly reduced
[4]; RT-PCR
  gene expression of proinflammatory genes (Il1a, Il1b, Ccl3, Ccl4, Ptgs2, Nos2) in air pouch cells: strong inhibition
[3]
  effect on LPS-induced COX-2 protein expression: significantly decreased

## O=C(O)Cc1oc2ccc(-c3ccccc3)cc2c1F [Compound 5]
[4]
  CCL2 formation in air pouch, ELISA: inhibited
  number of cells of the air pouch exudates: significantly reduced
[3]
  effect on LPS-induced COX-2 protein expression: no effect

## C=C(C)c1ccc2oc(CC(=O)O)c(F)c2c1 [Compound 6]
[4]
  CCL2 formation in air pouch, ELISA: inhibited
  IL-6 production in air pouch, ELISA: inhibited
  PGE2 levels in air pouch exudates: inhibited
  number of cells of the air pouch exudates: significantly reduced
[4]; RT-PCR
  expression of Ccl4 in air pouch cells: modestly inhibited
[3]
  effect on LPS-induced COX-2 protein expression: no effect

## O=C(O)/C=C1\Oc2ccc(Br)cc2C1(F)F [Compound 3]
[4]
  CCL2 formation in air pouch, ELISA: inhibited
  PGE2 levels in air pouch exudates: inhibited
  number of cells of the air pouch exudates: significantly reduced
[4]; RT-PCR
  expression of Ccl4 in air pouch cells: modestly inhibited
